From patent publication US20240024488A1, “COMPOUNDS AND USES THEREOF” (Foghorn Therapeutics Inc., priority 2020, published 2024)
Counter-ions that a name gives are not always drawn.

How the values were obtained:
[1] = molecular target: T1, HiBit-BRM fusion protein (Homo sapiens, UniProt P51531); test: HiBiT-BRM cell-based degradation assay (Nano-Glo HiBiT Lytic Detection, 24 h); details: HeLa cell line expressing HiBiT-BRM; for DC50: read-out: BRM HiBit Degradation IC50
T1 construct: expressed in transfected cells
T1 sequence (P51531 whole entry, the tested form may be a part): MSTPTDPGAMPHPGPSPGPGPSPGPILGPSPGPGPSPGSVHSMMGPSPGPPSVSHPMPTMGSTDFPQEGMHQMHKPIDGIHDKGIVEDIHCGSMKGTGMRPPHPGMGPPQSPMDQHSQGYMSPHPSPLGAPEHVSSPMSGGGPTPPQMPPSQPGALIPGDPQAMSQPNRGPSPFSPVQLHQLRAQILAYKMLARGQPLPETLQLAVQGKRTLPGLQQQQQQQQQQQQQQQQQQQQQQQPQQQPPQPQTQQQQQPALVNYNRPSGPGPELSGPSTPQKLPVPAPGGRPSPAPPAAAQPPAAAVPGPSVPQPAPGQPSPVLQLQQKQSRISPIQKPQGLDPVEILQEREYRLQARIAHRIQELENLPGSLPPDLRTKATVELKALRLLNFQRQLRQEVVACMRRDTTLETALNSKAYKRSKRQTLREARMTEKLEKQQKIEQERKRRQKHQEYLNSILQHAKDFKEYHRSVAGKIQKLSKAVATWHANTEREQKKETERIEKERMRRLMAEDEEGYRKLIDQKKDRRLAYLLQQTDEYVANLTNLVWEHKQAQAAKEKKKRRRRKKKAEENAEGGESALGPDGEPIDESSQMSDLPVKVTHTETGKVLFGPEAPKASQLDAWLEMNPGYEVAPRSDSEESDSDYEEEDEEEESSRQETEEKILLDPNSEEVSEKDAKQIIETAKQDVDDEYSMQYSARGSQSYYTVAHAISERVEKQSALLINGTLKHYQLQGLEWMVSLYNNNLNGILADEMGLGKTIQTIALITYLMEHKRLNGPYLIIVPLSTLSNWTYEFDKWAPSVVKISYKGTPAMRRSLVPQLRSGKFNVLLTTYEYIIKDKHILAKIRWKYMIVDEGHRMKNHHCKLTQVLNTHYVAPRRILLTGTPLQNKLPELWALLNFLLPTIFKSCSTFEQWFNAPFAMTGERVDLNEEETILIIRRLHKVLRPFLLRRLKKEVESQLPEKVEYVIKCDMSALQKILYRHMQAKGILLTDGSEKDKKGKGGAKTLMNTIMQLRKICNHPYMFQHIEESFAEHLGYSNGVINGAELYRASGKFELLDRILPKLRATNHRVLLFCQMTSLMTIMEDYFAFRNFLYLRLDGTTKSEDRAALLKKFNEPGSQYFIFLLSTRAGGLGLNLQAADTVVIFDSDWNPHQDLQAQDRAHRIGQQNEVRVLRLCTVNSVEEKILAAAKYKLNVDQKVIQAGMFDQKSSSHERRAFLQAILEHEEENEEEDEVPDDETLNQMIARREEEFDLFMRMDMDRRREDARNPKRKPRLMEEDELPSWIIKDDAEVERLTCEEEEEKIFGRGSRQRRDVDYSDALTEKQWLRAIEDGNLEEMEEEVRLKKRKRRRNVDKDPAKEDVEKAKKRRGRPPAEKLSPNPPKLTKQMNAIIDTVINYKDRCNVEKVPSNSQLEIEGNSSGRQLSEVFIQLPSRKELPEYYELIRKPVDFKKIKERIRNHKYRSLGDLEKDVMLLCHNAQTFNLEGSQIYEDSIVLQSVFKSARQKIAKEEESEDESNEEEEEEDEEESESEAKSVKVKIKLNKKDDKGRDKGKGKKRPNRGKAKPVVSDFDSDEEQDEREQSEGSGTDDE
Procedure: (§1) Procedure: A stable HeLa cell line expressing HiBiT-BRM was generated. On day 0, 5000 cells were seeded in 40 μL of media into each well of 384-well cell culture plates. On day 1, cells were treated with 120 nL DMSO or 120 nL of 3-fold serially DMSO-diluted compounds (10 points in duplicate with 30 μM as final top dose). Subsequently plates were incubated for 24 h in a standard tissue culture incubator and equilibrated at room temperature for 15 minutes. Nano-Glo HiBiT Lytic Detection System (Promega N3050) reagent was freshly prepared and 20 ul was added to each well. Upon addition of this LgBit-containing reagent, the HiBiT and LgBiT proteins associate to form the luminescent NanoBiT luciferase. The plates were shaken for 10 minutes at room temperature and the bioluminescence read using an EnVision plate reader (PerkinElmer).
(§2) The degradation % was calculated using the following formula: % degradation=100%−100%×(LumSample−LumLC)/(LumHC−LumLC). DMSO treated cells are employed as High Control (HC) and 2 μM of a known BRM/BRG1 degrader standard treated cells are employed as Low Control (LC).

[2] = molecular target: T2, HiBit-BRG1 fusion protein (Homo sapiens, UniProt P51532); test: HiBiT-BRG1 cell-based degradation assay (Nano-Glo HiBiT Lytic Detection, 24 h); details: HeLa cell line expressing HiBit-BRG1 and LgBit; for Dmax: read-out: BRG1 HiBit Degradation Maximum (%); for DC50: read-out: BRMG1 HiBit Degradation IC50
T2 construct: expressed in transfected cells
T2 sequence (P51532 whole entry, the tested form may be a part): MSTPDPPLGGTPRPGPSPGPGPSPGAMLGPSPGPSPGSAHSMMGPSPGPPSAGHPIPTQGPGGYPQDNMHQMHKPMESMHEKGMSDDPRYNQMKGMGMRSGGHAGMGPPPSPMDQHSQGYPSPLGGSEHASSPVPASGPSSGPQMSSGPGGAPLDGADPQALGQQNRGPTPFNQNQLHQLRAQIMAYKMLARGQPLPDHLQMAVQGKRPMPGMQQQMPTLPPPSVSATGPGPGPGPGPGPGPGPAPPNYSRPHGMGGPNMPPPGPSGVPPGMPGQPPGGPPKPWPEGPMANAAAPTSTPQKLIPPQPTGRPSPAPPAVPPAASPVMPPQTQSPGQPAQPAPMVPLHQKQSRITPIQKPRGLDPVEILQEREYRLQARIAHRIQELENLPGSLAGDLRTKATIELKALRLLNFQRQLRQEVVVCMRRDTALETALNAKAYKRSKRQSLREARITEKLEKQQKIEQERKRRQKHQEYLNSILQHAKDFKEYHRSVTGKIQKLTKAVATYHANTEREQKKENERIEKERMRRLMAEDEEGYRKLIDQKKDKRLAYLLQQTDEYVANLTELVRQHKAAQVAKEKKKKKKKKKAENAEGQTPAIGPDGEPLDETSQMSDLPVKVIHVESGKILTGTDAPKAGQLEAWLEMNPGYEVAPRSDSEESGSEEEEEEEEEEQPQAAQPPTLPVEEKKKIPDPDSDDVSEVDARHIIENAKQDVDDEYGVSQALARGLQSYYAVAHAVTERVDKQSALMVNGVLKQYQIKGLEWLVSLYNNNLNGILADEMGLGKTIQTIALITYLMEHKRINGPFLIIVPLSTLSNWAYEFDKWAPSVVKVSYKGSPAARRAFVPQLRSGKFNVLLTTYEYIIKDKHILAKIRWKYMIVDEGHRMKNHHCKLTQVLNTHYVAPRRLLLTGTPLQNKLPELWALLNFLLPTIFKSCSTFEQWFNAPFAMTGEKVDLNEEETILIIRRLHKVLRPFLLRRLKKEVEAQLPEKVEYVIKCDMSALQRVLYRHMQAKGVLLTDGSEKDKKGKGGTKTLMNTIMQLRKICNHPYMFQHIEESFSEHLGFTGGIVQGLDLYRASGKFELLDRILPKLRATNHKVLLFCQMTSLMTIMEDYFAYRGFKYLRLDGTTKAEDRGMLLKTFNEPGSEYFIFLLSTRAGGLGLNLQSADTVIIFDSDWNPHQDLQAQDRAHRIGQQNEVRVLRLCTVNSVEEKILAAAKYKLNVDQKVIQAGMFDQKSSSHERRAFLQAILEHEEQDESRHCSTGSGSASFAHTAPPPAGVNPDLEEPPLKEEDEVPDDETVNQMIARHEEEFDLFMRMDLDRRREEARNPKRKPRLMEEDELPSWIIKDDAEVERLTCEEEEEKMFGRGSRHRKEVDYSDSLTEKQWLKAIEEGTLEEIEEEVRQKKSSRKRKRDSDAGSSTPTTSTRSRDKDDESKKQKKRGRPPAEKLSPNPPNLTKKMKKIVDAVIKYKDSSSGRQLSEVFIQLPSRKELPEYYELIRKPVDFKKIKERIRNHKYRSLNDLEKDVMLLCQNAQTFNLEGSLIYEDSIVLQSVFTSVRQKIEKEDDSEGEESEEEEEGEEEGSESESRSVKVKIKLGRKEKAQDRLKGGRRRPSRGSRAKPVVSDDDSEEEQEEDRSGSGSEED
Procedure: as §1, with “On day 1, cells were treated with 120 nL DMSO or 120 nL of 3-fold serially DMSO-diluted compounds (10 points in duplicate with 30 μM as final top dose).” left out
For measurement of BRG1 degradation, a stable HeLa cell line expressing HiBit-BRG1 and LgBit was generated. The same protocol as above was then followed.
as §2

| DC50 [1] [nM] | Dmax [2] [%] | DC50 [2] [nM] | Structure (SMILES) | BRM HiBit Degradation Maximum (%) [1] |
| --- | --- | --- | --- | --- |
| > 10 | < 50 | – | Cc1ncsc1-c1ccc([C@H](C)NC(=O)[C@@H]2C[C@@H](O)CN2C(=O)[C@@H](c2cc(OCCN3CCC(N4CC(c5cc6cc(-c7ccccc7O)nnc6[nH]5)C4)CC3)no2)C(C)C)cc1 (racemic) [Compound 48, (2S,4R)-4-hydroxy-1-((R)-2-(3-(2-(4-(3-(3-(2-hydroxyphenyl)-7H-pyrrolo[2,3-c]pyridazin-6-yl)azetidin-1-yl)piperidin-1-yl)ethoxy)isoxazol-5-yl)-3-methylbutanoyl)-N-((S)-1-(4-(4-methylthiazol-5-yl)phenyl)ethyl)pyrrolidine-2-carboxamide] | A (“A” indicates maximum degradation ≥ 75%) |
| > 10 | > 50 | > 100 | Cc1ncsc1-c1ccc([C@H](C)NC(=O)[C@@H]2C[C@@H](O)CN2C(=O)[C@@H](c2cc(OCCN3CCC(N4CC(c5cc6cc(-c7ccccc7O)nnc6[nH]5)C4)C3)no2)C(C)C)cc1 (mixture of isomers) [Compound 49, (2S,4R)-4-hydroxy-1-((2R)-2-(3-(2-(3-(3-(3-(2-hydroxyphenyl)-7H-pyrrolo[2,3-c]pyridazin-6-yl)azetidin-1-yl)pyrrolidin-1-yl)ethoxy)isoxazol-5-yl)-3-methylbutanoyl)-N-((S)-1-(4-(4-methylthiazol-5-yl)phenyl)ethyl)pyrrolidine-2-carboxamide] | A (“A” indicates maximum degradation ≥ 75%) |
| > 10 | > 50 | > 100 | Cc1ncsc1-c1ccc([C@H](C)NC(=O)[C@@H]2C[C@@H](O)CN2C(=O)[C@@H](c2cc(OCCN3CCC(c4cc5cc(-c6ccccc6O)nnc5[nH]4)CC3)no2)C(C)C)cc1 (racemic) [Compound 51, (2S,4R)-4-hydroxy-1-((R)-2-(3-(2-(4-(3-(2-hydroxyphenyl)-7H-pyrrolo[2,3-c]pyridazin-6-yl)piperidin-1-yl)ethoxy)isoxazol-5-yl)-3-methylbutanoyl)-N-((S)-1-(4-(4-methylthiazol-5-yl)phenyl)ethyl)pyrrolidine-2-carboxamide] | A (“A” indicates maximum degradation ≥ 75%) |
| > 10 | < 50 | – | Cc1ncsc1-c1ccc([C@H](C)NC(=O)[C@@H]2C[C@@H](O)CN2C(=O)[C@@H](c2cc(OCCN3CCC(c4cc5cc(-c6ccccc6O)nnc5[nH]4)C3)no2)C(C)C)cc1 (mixture of isomers) [Compound 52, (2S,4R)-4-hydroxy-1-((2R)-2-(3-(2-(3-(3-(2-hydroxyphenyl)-7H-pyrrolo[2,3-c]pyridazin-6-yl)pyrrolidin-1-yl)ethoxy)isoxazol-5-yl)-3-methylbutanoyl)-N-((S)-1-(4-(4-methylthiazol-5-yl)phenyl)ethyl)pyrrolidine-2-carboxamide] | A (“A” indicates maximum degradation ≥ 75%) |
| > 10 | > 50 | > 100 | Cc1ncsc1-c1ccc([C@H](C)NC(=O)[C@@H]2C[C@@H](O)CN2C(=O)[C@@H](c2cc(OCCN3CC4(CC(c5cc6cc(-c7ccccc7O)nnc6[nH]5)C4)C3)no2)C(C)C)cc1 (racemic) [Compound 54, (2S,4R)-4-hydroxy-1-((R)-2-(3-(2-(6-(3-(2-hydroxyphenyl)-7H-pyrrolo[2,3-c]pyridazin-6-yl)-2-azaspiro[3.3]heptan-2-yl)ethoxy)isoxazol-5-yl)-3-methylbutanoyl)-N-((S)-1-(4-(4-methylthiazol-5-yl)phenyl)ethyl)pyrrolidine-2-carboxamide] | A (“A” indicates maximum degradation ≥ 75%) |
| > 100 | – | – | Cc1ncsc1-c1ccc([C@H](C)NC(=O)[C@@H]2C[C@@H](O)CN2C(=O)[C@@H](c2cc(OCCN3CC(c4c[nH]c5nnc(-c6ccccc6O)cc45)C3)no2)C(C)C)cc1 [Compound 15, (2S,4R)-4-hydroxy-1-((R)-2-(3-(2-(3-(3-(2-hydroxyphenyl)-7H-pyrrolo[2,3-c]pyridazin-5-yl)azetidin-1-yl)ethoxy)isoxazol-5-yl)-3-methylbutanoyl)-N—((S)-1-(4-(4-methylthiazol-5-yl)phenyl)ethyl)pyrrolidine-2-carboxamide formate] | A (“A” indicates maximum degradation ≥ 75%) |

The next lines start with the compound.

| Structure (SMILES) | DC50 [1] [nM] | Dmax [2] [%] | DC50 [2] [nM] | BRM HiBit Degradation Maximum (%) [1] |
| --- | --- | --- | --- | --- |
| Cc1ncsc1-c1ccc(CNC(=O)[C@@H]2C[C@@H](O)CN2C(=O)[C@@H](NCCC(=O)N2CC(c3cc4cc(-c5ccccc5O)nnc4[nH]3)C2)C(C)(C)C)cc1 (racemic) [Compound 50, (2S,4R)-4-hydroxy-1-((S)-2-((3-(3-(3-(2-hydroxyphenyl)-7H-pyrrolo[2,3-c]pyridazin-6-yl)azetidin-1-yl)-3-oxopropyl)amino)-3,3-dimethylbutanoyl)-N-(4-(4-methylthiazol-5-yl)benzyl)pyrrolidine-2-carboxamide] | – | < 50 | – | C (“C” indicates maximum degradation < 50%) |
| Cc1ncsc1-c1ccc([C@H](C)NC(=O)[C@@H]2C[C@@H](O)CN2C(=O)[C@@H](c2cc(OCCNC34CC(c5cc6cc(-c7ccccc7O)nnc6[nH]5)(C3)C4)no2)C(C)C)cc1 (racemic) [Compound 53, (2S,4R)-4-hydroxy-1-((R)-2-(3-(2-((3-(3-(2-hydroxyphenyl)-7H-pyrrolo[2,3-c]pyridazin-6-yl)bicyclo[1.1.1]pentan-1-yl)amino)ethoxy)isoxazol-5-yl)-3-methylbutanoyl)-N-((S)-1-(4-(4-methylthiazol-5-yl)phenyl)ethyl)pyrrolidine-2-carboxamide] | > 10 | > 75 | > 10 | A (“A” indicates maximum degradation ≥ 75%) |
| Cc1ncsc1-c1ccc([C@H](C)NC(=O)[C@@H]2C[C@@H](O)CN2C(=O)[C@H](c2cc(OCCN3CC(c4cc5cc(-c6ccccc6O)nnc5[nH]4)C3)no2)C(C)C)cc1 (racemic) [Compound 62, (2S,4R)-4-hydroxy-1-((S)-2-(3-(2-(3-(3-(2-hydroxyphenyl)-7H-pyrrolo[2,3-c]pyridazin-6-yl)azetidin-1-yl)ethoxy)isoxazol-5-yl)-3-methylbutanoyl)-N-((S)-1-(4-(4-methylthiazol-5-yl)phenyl)ethyl)pyrrolidine-2-carboxamide] | – | – | – | C (“C” indicates maximum degradation < 50%) |
| Cc1ncsc1-c1ccc([C@H](C)NC(=O)[C@@H]2C[C@@H](O)CN2C(=O)[C@@H](c2cc(N3CCN(CCN4CC(c5cc6cc(-c7ccccc7O)nnc6[nH]5)C4)CC3)no2)C(C)C)cc1 (racemic) [Compound 273, (2S,4R)-4-hydroxy-1-[(2R)-2-{3-[4-(2-{3-[3-(2-hydroxyphenyl)-7H-pyrrolo[2,3-c]pyridazin-6-yl]azetidin-1-yl}ethyl)piperazin-1-yl]-1,2-oxazol-5-yl}-3-methylbutanoyl]-N-[(1S)-1-[4-(4-methyl-1,3-thiazol-5-yl)phenyl]ethyl]pyrrolidine-2-carboxamide] | > 100 | – | – | A (“A” indicates maximum degradation ≥ 75%) |
| Cc1ncsc1-c1ccc([C@H](C)NC(=O)[C@@H]2C[C@@H](O)CN2C(=O)[C@@H](c2cc(OCCN3CC(c4cc5cc(-c6ccccc6O)nnc5[nH]4)C3)no2)C(C)C)cc1 [Compound 14, (2S,4R)-4-hydroxy-1-((R)-2-(3-(2-(3-(3-(2-hydroxyphenyl)-7H-pyrrolo[2,3-c]pyridazin-6-yl)azetidin-1-yl)ethoxy)isoxazol-5-yl)-3-methylbutanoyl)-N—((S)-1-(4-(4-methylthiazol-5-yl)phenyl)ethyl)pyrrolidine-2-carboxamide formate] | > 10 | – | – | A (“A” indicates maximum degradation ≥ 75%) |
| Cc1ncsc1-c1ccc([C@H](C)NC(=O)[C@@H]2C[C@@H](O)CN2C(=O)[C@@H](c2cc(C3CCN(C(=O)N4CCc5[nH]c6nnc(-c7ccccc7O)cc6c5C4)CC3)no2)C(C)C)cc1 [Compound 105, (2S,4R)-4-hydroxy-1-((R)-2-(3-(1-(3-(2-hydroxyphenyl)-6,7,8,9-tetrahydro-5H-pyrido[3′,4′:4,5]pyrrolo[2,3-c]pyridazine-6-carbonyl)piperidin-4-yl)isoxazol-5-yl)-3-methylbutanoyl)-N—((S)-1-(4-(4-methylthiazol-5-yl)phenyl)ethyl)pyrrolidine-2-carboxamide] | > 10 | – | – | A (“A” indicates maximum degradation ≥ 75%) |
